{"source": "paper PMC9551036", "about": "“A selective and orally bioavailable VHL-recruiting PROTAC achieves SMARCA2 degradation in vivo” (Nature Communications, 2022)", "key": {"[1]": {"assay": "Bidirectional permeability measurement in Caco-2 cells", "type": "in vitro ADME", "details": "human", "procedure,_shortened": "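Caco-2 monolayers grown 14–21 days, preincubated 24 h with medium containing 1 µM compound; bidirectional transport sampled up to 2 h, quantified by LC-MS/MS, ± 5 µM zosuquidar (P-gp inhibitor). Papp,AB and Papp,BA from receiver amount, donor C0, area and time; efflux ratio = Papp,BA/Papp,AB (duplicate means). TEER checked per plate.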"}, "SMARCA2": {"biological_target": "SMARCA2 (Homo sapiens, UniProt P51531)", "sequence (P51531 whole entry)": "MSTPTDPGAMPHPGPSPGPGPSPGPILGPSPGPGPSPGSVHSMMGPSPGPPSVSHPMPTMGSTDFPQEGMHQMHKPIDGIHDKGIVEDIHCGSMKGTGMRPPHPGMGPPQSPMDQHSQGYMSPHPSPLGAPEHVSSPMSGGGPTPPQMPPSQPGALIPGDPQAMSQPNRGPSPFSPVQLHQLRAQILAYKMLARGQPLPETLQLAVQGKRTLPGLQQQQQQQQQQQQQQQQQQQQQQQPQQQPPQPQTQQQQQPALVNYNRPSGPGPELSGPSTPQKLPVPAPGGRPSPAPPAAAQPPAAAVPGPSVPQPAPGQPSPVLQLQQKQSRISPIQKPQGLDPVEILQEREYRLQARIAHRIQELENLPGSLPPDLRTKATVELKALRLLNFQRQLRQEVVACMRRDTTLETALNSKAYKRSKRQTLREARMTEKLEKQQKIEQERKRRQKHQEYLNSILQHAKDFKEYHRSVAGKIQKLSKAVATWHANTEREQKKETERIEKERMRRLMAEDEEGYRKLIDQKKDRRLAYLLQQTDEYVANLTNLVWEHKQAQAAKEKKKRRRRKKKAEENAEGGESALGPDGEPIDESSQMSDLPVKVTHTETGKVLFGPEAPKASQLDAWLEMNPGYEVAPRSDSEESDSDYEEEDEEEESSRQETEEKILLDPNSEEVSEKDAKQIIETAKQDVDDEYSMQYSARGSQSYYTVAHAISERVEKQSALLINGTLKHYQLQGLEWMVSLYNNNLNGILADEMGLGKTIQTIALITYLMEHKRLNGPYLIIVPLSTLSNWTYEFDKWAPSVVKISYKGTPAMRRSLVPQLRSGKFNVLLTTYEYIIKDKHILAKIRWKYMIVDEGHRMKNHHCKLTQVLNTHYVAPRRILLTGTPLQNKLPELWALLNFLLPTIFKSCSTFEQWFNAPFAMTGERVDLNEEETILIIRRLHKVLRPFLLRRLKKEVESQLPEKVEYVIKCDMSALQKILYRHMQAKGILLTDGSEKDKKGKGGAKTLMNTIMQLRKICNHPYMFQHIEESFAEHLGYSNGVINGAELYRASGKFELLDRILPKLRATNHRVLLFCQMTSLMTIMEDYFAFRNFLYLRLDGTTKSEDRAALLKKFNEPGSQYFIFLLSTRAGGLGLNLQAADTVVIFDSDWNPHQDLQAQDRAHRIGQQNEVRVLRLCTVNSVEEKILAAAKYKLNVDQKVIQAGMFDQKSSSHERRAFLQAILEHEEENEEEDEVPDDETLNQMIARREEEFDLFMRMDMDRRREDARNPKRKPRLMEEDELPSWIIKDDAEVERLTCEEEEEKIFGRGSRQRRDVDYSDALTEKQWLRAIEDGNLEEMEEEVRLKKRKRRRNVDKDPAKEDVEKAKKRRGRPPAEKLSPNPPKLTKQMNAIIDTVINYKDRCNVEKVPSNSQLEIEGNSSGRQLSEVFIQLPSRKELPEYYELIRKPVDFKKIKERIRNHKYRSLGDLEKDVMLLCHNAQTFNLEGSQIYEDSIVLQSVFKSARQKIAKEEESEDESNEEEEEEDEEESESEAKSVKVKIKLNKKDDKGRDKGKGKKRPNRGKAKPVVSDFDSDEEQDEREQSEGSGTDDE", "assay": "SMARCA2 capillary electrophoresis protein assay in other cell lines (A549, NCI-H1568, HCT116, LU99, HCC-364, HCT-15, HCC4006, SK-N-AS)", "type": "cell-based", "design": "endogenous in cells; host or cells: RKO, NCI-H1568, A549, HCT116, LU99, HCC-364, HCT-15, HCC4006, SK-N-AS", "experimental": "130,000–200,000 cells were seeded in 24-well plates and incubated until settled down or overnight. Compounds were dissolved in DMSO and added to cells in indicated concentrations using a digital dispenser following an optional media change. Cells were incubated for 4 or 18 h as indicated. For SMARCA2/4 half-life determination, 150,000 or 200,000 cells were seeded in 24-well plates. The next day, 50 µg/ml cycloheximide (Sigma) was added and cells were incubated for 1–24 h. For SMARCA2/4 re-synthesis measurements, 200,000 cells were seeded in 24-well plates. The next day, 100 nM compound 6 was added for 4 h to degrade SMARCA2/4, and a sample was taken as baseline for normalisation. To allow re-synthesis, a VHL binder (compound 32, 25 or 50 µM) was then added for 3 or 24 h. Medium was removed, cells were washed with PBS and lysed with 80 µl Lysis Buffer (MSD Tris Lysis Buffer (#R60TX-2) + Halt Inhibitor Cocktail (100x) + Benzonase 0.5 µL/ml). Samples were frozen at −80 °C and thawed at room temperature before use. Samples were transferred to a V-bottom plate and insoluble debris was pelleted by centrifugation for 5 min at maximum speed. The supernatant was transferred to a fresh plate. Master Mix and Ladder were prepared according to manufacturer’s instructions for 12–230 kDa Wes Separation Module, 8 × 25 capillary cartridges, Protein Simple #SM-W004 with Anti-Rabbit Detection Module for Wes, Peggy Sue or Sally Sue, Protein Simple #DM-001. 4.8 µl lysate were mixed with 1.2 µl Master Mix to achieve a protein concentration of ~0.5 µg/µl. Antibodies were diluted in Antibody Diluent II (SMARCA2 Sigma #HPA029981 RRID:AB_10602406 1:25–100, SMARCA4 Cell Signalling #49360 clone D1Q7F RRID:AB_2728743 1:15–120 or Abcam #ab110641 clone EPNCIR111A RRID:AB_10861578 1:60, GAPDH Abcam #ab9485 RRID:AB_307275 1:250). Wes plates were prepared and run according to manufacturer’s instructions. Proteins were quantified with accompanying Compass Software. SMARCA2/4 protein levels were normalised to GAPDH. […] Where applicable, curves were fitted using a 4-parametric logistic model."}, "Plasma protein binding": {"assay": "Plasma protein binding", "type": "in vitro ADME", "details": "for fraction unbound at 5 h, 3 µmol/L: bovine, read-out: PPB fu 10% Calf; for fraction unbound at 5 h, 3 µmol/L / PPB fu 10% Calf: 10% calf", "experimental": "Binding of compound to plasma proteins was determined by equilibrium dialysis of 3 µmol/L compound in plasma (or plasma dilutions in PBS) against PBS through an 8 kDa molecular-weight cut-off cellulose membrane (RED device, Thermo Fisher) at 37 °C for 5 h. After incubation, aliquots from donor and acceptor compartments were precipitated and the concentrations in the supernatants were determined by quantitative LC-MS/MS. Calibration and quality control samples were prepared using blank plasma and internal standard. The fraction unbound was calculated as ratio of the compound concentration in the acceptor compartment to the concentration in the donor compartment."}, "[2]": {"details": "Caco-2, pH 7.4, Caco-2, b to a, read-out: Caco-2 Pba"}, "[3]": {"details": "Caco-2, pH 7.4, Caco-2, read-out: Caco-2 Efflux ratio"}, "[4]": {"details": "Caco-2, pH 7.4, Caco-2, read-out: Caco-2 Pab"}, "[5]": {"details": "NCI-H1568 (4 h), mean ± SD, read-out: SMARCA2 DC50"}, "[6]": {"details": "NCI-H1568, 4h, individual replicates, read-out: NCI-H1568 (4h) SMARCA2 DC50"}}, "note": "Where “and” joins values, the source holds several entries; their conditions need not be identical. Equal entries are not always repeated. Where two headings read alike, the source gives them in different places.", "data": [{"smiles": "O=c1nc2n(C3CCCC3)c3ccccc3n2c2cccc(Br)c12", "note": "[compound 1]", "values": [{"measurement": "Papp B→A at 1 µM", "setting": "[1]; [2]", "result": 23.9, "unit": "×10⁻⁶ cm/s"}, {"measurement": "efflux ratio at 2 h, 1 µM", "setting": "[1]; [3]", "result": 0.774}, {"measurement": "Papp A→B at 1 µM", "setting": "[1]; [4]", "result": 31, "unit": "×10⁻⁶ cm/s"}]}, {"smiles": "Nc1cccc2c1c(=O)nc1n(C3CCCC3)c3ccccc3n21", "note": "[compound 2]", "values": [{"measurement": "Papp B→A at 1 µM", "setting": "[1]; [2]", "result": 17, "unit": "×10⁻⁶ cm/s"}, {"measurement": "efflux ratio at 2 h, 1 µM", "setting": "[1]; [3]", "result": 0.459}, {"measurement": "Papp A→B at 1 µM", "setting": "[1]; [4]", "result": 37, "unit": "×10⁻⁶ cm/s"}]}, {"smiles": "CN1CCC(c2ccc3c(c2)n(C2CCCC2)c2nc(=O)c4c(Br)cccc4n32)CC1", "note": "[compound 3]", "values": [{"measurement": "DC50", "setting": "SMARCA2; [5]", "result": "> 2500", "unit": "nM"}, {"measurement": "DC50", "setting": "SMARCA2; [6]", "result": "> 2500", "unit": "nM"}, {"measurement": "Papp B→A at 1 µM", "setting": "[1]; [2]", "result": 21.7, "unit": "×10⁻⁶ cm/s"}, {"measurement": "efflux ratio at 2 h, 1 µM", "setting": "[1]; [3]", "result": 0.768}, {"measurement": "Papp A→B at 1 µM", "setting": "[1]; [4]", "result": 28, "unit": "×10⁻⁶ cm/s"}]}, {"smiles": "Cc1ncsc1-c1ccc([C@H](COC(C)CN2CCC(c3ccc4c(c3)n(C3CCCC3)c3nc(=O)c5c(Br)cccc5n43)CC2)NC(=O)[C@@H]2C[C@@H](O)CN2C(=O)[C@@H](NC(=O)C2(N(C)C)CC2)C(C)(C)C)cc1", "note": "(some centres unmarked) [compound 10]", "values": [{"measurement": "fraction unbound at 5 h, 3 µmol/L", "setting": "Plasma protein binding; 10% calf plasma dilution in PBS, fraction unbound", "result": 0.05}, {"measurement": "fraction unbound at 5 h, 3 µmol/L", "setting": "Plasma protein binding; 10% plasma (plasma dilution in PBS)", "result": 0.0548}, {"measurement": "Papp B→A at 1 µM", "setting": "[1]; [2]", "result": 26, "unit": "×10⁻⁶ cm/s"}, {"measurement": "efflux ratio at 2 h, 1 µM", "setting": "[1]; [3]", "result": 4.64}, {"measurement": "Papp B→A at 1 µM", "setting": "[1]; Caco-2, pH 7.4, Modified Caco-2, b to a, read-out: Modified Caco-2 Pba", "result": 69, "unit": "×10⁻⁶ cm/s"}, {"measurement": "efflux ratio at 2 h, 1 µM", "setting": "[1]; Caco-2, pH 7.4, Modified Caco-2, read-out: Modified Caco-2 Efflux ratio", "result": 36.3}, {"measurement": "Papp A→B at 1 µM", "setting": "[1]; Caco-2, pH 7.4, Modified Caco-2, read-out: Modified Caco-2 Pab", "result": "< 1", "unit": "×10⁻⁶ cm/s"}]}, {"smiles": "Cc1ncsc1-c1ccc([C@H](CC[C@H](C)CCN2CCC(c3ccc4c(c3)n(C3CCCC3)c3nc(=O)c5c(Br)cccc5n43)CC2)NC(=O)[C@@H]2C[C@H](O)CN2C(=O)[C@@H](NC(=O)C2(F)CC2)C(C)(C)C)cc1", "note": "[compound 12]", "values": [{"measurement": "Papp A→B at 1 µM", "setting": "[1]; Caco-2, pH 7.4, Caco-2, a to b, read-out: Caco-2 Pab", "result": 3.4, "unit": "×10⁻⁶ cm/s"}, {"measurement": "Papp B→A at 1 µM", "setting": "[1]; [2]", "result": 8.5, "unit": "×10⁻⁶ cm/s"}]}, {"smiles": "Cc1ncsc1-c1ccc(CNC(=O)[C@@H]2C[C@@H](O)CN2C(=O)[C@@H](NC(=O)C2(F)CC2)C(C)(C)C)c(OCCN2CCC(c3ccc4c(c3)n(C3CCCC3)c3nc(=O)c5c(Br)cccc5n43)CC2)c1", "note": "[compound 20]", "values": [{"measurement": "DC50", "setting": "SMARCA2; [5]", "result": "> 2500", "unit": "nM"}, {"measurement": "DC50", "setting": "SMARCA2; [6]", "result": "> 2500", "unit": "nM"}]}, {"smiles": "Cc1ncsc1-c1ccc([C@H](CCCCN2CCC(c3ccc4c(c3)n(C3CCCC3)c3nc(=O)c5c(Br)cccc5n43)CC2)NC(=O)[C@@H]2C[C@@H](O)CN2C(=O)[C@@H](NC(=O)C2(F)CC2)C(C)(C)C)cc1", "note": "[compound 25]", "values": [{"measurement": "PPB fu 10% Calf", "setting": "Plasma protein binding", "result": 0.731, "unit": "%"}, {"measurement": "PPB fu 10% Calf", "setting": "Plasma protein binding; fraction unbound", "result": 0.7, "unit": "%"}]}, {"smiles": "Cc1ncsc1-c1ccc([C@H](COCCN2CCC(c3ccc4c(c3)n(C3CCCC3)c3nc(=O)c5c(Br)cccc5n43)CC2)NC(=O)[C@@H]2C[C@@H](O)CN2C(=O)[C@@H](NC(=O)C2(N(C)C)CC2)C(C)(C)C)cc1", "note": "[compound 26]", "values": [{"measurement": "Papp B→A at 1 µM", "setting": "[1]; [2]", "result": 15.4, "unit": "×10⁻⁶ cm/s"}, {"measurement": "Papp A→B at 1 µM", "setting": "[1]; [4]", "result": "< 3", "unit": "×10⁻⁶ cm/s"}]}, {"smiles": "Cc1ncsc1-c1ccc([C@H](COC(C)(C)CN2CCC(c3ccc4c(c3)n(C3CCCC3)c3nc(=O)c5c(Br)cccc5n43)CC2)NC(=O)[C@@H]2C[C@@H](O)CN2C(=O)[C@@H](NC(=O)C2(F)CC2)C(C)(C)C)cc1", "note": "[compound 28]", "values": [{"measurement": "SMARCA2 Dmax", "setting": "SMARCA2; NCI-H1568 (4 h), mean ± SD", "result": "94 ± 6", "unit": "%"}, {"measurement": "DC50", "setting": "SMARCA2; [5]", "result": "18 ± 13", "unit": "nM"}, {"measurement": "DC50", "setting": "SMARCA2; [6]", "result": "6.62 nM and 28.2 nM and 30.1 nM"}, {"measurement": "PPB fu 10% Calf", "setting": "Plasma protein binding", "result": "1.857% and 2.316%"}, {"measurement": "PPB fu 10% Calf", "setting": "Plasma protein binding; fraction unbound", "result": "2 ± 0.3", "unit": "%"}, {"measurement": "PPB fu 10% Human", "setting": "Plasma protein binding", "result": "<0.224", "unit": "%"}, {"measurement": "PPB fu 10% Mouse", "setting": "Plasma protein binding", "result": "<0.219", "unit": "%"}, {"measurement": "PPB fu 10% Rat", "setting": "Plasma protein binding", "result": "<0.231", "unit": "%"}, {"measurement": "PPB fu Human", "setting": "Plasma protein binding; fraction unbound", "result": "<0.2", "unit": "%"}, {"measurement": "PPB fu Mouse", "setting": "Plasma protein binding; fraction unbound", "result": "<0.2", "unit": "%"}, {"measurement": "PPB fu Rat", "setting": "Plasma protein binding; fraction unbound", "result": "<0.2", "unit": "%"}]}, {"smiles": "Cc1ncsc1-c1ccc([C@H](CC[C@@H](C)CCN2CCC(c3ccc4c(c3)n(C3CCCC3)c3nc(=O)c5c(Br)cccc5n43)CC2)NC(=O)[C@@H]2C[C@@H](O)CN2C(=O)[C@@H](NC(=O)C2(F)CC2)C(C)(C)C)cc1", "note": "[compound 29]", "values": [{"measurement": "PPB fu 10% Calf", "setting": "Plasma protein binding", "result": "<0.144", "unit": "%"}, {"measurement": "PPB fu 10% Calf", "setting": "Plasma protein binding; fraction unbound", "result": "<0.14", "unit": "%"}, {"measurement": "PPB fu 10% Human", "setting": "Plasma protein binding", "result": "<0.052", "unit": "%"}, {"measurement": "PPB fu 10% Mouse", "setting": "Plasma protein binding", "result": "<0.335", "unit": "%"}, {"measurement": "PPB fu 10% Rat", "setting": "Plasma protein binding", "result": "<0.272", "unit": "%"}, {"measurement": "PPB fu Human", "setting": "Plasma protein binding; fraction unbound", "result": "<0.05", "unit": "%"}, {"measurement": "PPB fu Mouse", "setting": "Plasma protein binding; fraction unbound", "result": "<0.34", "unit": "%"}, {"measurement": "PPB fu Rat", "setting": "Plasma protein binding; fraction unbound", "result": "<0.27", "unit": "%"}]}, {"smiles": "Cc1ncsc1-c1ccc([C@H](CCC(C)(C)CCN2CCC(c3ccc4c(c3)n(C3CCCC3)c3nc(=O)c5c(Br)cccc5n43)CC2)NC(=O)[C@@H]2C[C@@H](O)CN2C(=O)[C@@H](NC(=O)C2(F)CC2)C(C)(C)C)cc1", "note": "[compound 30]", "values": [{"measurement": "PPB fu 10% Calf", "setting": "Plasma protein binding", "result": "<0.071", "unit": "%"}, {"measurement": "PPB fu 10% Calf", "setting": "Plasma protein binding; fraction unbound", "result": "<0.07", "unit": "%"}]}]}
